Experimental data taken from US12339274B2, “Blood coagulometer and method” (priority 2016, dated 2025).
Where two headings read alike, the source gives them in different places.

Test system: human whole blood
Type: cell-based
Description: One or more samples of human whole blood were collected by a licensed medical doctor from a healthy volunteer known to refrain from the taking of anticoagulant medications such as, for example, aspirin. Written informed consent of the donors was collected under an approved protocol from the Internal Review Board at the UT Health Science Center. Human whole blood was collected, by antecubital venipuncture, into vials 12 containing the anticoagulant sodium citrate (3.8%, applied at a 9:1 blood to citrate ratio).
Embodiments of the apparatus 10 of the present invention may also be used to characterize clot contraction. […] The test volume was 27 μL; however, to ensure filling of the test chamber and complete immersion within the blood sample 50 of the wetted portion 24/plate 15 of the probe 20 disposed within the vial 15, a volume of 250 μL of blood was injected into a vial 15 comprising glass. Data recording began once the wetted portion 24/plate 15 was lowered into position such that it was immersed within the blood sample 50 and was 1 mm away from the lower member 50, both of which comprised acrylic. Deflection of the wire portion 21 of the probe 20 typically began after 360 to 480 seconds, and data collection was concluded after 3,600 seconds (1 hour).

`C=C1[C@@H](C)[C@H]2[C@H](Cc3ccccc3)NC(=O)[C@]23[C@H](OC(C)=O)/C=C/[C@@](C)(O)C(=O)[C@@H](C)C/C=C/[C@H]3[C@@H]1O` [cytochalasin D] was tested, and the contraction force (increasing concentrations in human whole blood) was “dose-dependent decrease”.

For `c1nnn[nH]1` [tetrazole], the contraction force (1 mMol in human whole blood, FIG. 41) was “enhanced contraction force” and the contraction force (60 mMol in human whole blood, FIG. 41) was “reduced contraction force”.
